Measured values from ChEMBL document CHEMBL1158891, “Chemical and biological investigation of the fungus Pulveroboletus ravenelii” (J Nat Prod, 2003).
Values after ≈ are worked out from the molar mass of the structure shown.

Experiments:
[1] = Inhibition of 7,12-dimethylbenz[a]anthracene-induced preneoplastic lesions in BALB/c mouse mammary gland culture after 1 to 10 days; assay type: functional, tissue-based
[2] = molecular target: T1, Prostaglandin G/H synthase 2 (Homo sapiens, UniProt P35354); assay: Inhibition of COX2
T1 sequence (P35354 whole entry): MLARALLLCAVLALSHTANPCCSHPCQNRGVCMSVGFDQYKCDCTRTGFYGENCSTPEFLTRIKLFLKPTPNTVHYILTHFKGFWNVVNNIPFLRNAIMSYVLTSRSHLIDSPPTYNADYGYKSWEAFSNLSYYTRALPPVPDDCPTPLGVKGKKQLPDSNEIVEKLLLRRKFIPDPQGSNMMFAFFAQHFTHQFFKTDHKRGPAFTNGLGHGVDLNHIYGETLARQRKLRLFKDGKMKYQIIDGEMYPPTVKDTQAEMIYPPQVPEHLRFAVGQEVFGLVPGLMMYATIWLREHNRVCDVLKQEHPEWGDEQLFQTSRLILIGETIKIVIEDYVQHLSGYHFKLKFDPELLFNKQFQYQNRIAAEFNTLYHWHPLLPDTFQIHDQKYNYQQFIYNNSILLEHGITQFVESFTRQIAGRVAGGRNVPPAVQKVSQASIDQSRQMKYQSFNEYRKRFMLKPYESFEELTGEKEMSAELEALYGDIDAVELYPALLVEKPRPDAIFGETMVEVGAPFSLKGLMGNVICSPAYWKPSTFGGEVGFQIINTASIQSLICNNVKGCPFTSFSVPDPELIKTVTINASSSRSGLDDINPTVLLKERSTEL

[3] = molecular target: Prostaglandin G/H synthase 1 (Homo sapiens, UniProt P23219); assay: Inhibition of COX1
Sequence of Prostaglandin G/H synthase 1 (P23219 whole entry): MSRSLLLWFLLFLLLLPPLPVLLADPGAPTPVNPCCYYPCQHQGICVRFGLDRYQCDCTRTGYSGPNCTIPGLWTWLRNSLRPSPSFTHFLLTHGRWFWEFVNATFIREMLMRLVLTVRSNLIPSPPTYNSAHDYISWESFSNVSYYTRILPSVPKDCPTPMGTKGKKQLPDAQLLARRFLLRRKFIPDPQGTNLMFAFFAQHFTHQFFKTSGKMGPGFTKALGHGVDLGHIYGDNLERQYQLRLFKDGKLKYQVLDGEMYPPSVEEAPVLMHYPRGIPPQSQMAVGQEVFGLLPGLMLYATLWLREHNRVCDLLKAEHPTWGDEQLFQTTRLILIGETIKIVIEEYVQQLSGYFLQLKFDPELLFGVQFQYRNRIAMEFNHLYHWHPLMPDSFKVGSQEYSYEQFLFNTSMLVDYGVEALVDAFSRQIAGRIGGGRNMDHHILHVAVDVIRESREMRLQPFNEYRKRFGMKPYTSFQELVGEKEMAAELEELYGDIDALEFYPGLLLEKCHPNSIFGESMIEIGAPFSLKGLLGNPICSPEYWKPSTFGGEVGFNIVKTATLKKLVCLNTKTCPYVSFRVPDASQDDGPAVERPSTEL

[4] = test system: Staphylococcus aureus; assay: Antimicrobial activity against Staphylococcus aureus; assay type: functional, organism-based

SMILES | IC50 [1] [µg/mL] | IC50 [2] [µM] | IC50 [3] [µM] | IC50 [4] [µg/mL]
COC(=O)[C@@H](c1ccccc1)[C@@H](C1=C(O)/C(=C/c2ccccc2)OC1=O)c1ccccc1 [PULVERAVEN A] | 6 (≈ 14.1 µM) | – | – | –
COC(=O)[C@@H](c1ccccc1)[C@H](C1=C(O)/C(=C/c2ccccc2)OC1=O)c1ccccc1 [PULVERAVEN B] | 0.8 (≈ 1.88 µM) | > 234 | > 234 | –
COC(=O)/C(=C1/OC(=O)C(c2ccccc2)=C1O)c1ccccc1 [VULPINIC ACID] | > 10 | – | 676 | 20 (≈ 62.1 µM)
